Experimental findings from patent publication US20230355705A1, “DISCOVERY OF YEATS2 YEATS DOMAIN INHIBITORS AS NOVEL ANTI-CANCER AGENTS” (The University of Hong Kong, priority 2022, published 2023) are described below.

This assay deals with T1, YEATS2 YEATS domain (Homo sapiens, UniProt Q9ULM3).
T1 construct: 201-332 containing an N-terminal 10×His-SUMO tag was overexpressed in Escherichia coli BL21 (DE3); 10×His-SUMO (N, cleaved yes); made in house; host or cells: Escherichia coli BL21 (DE3)
T1 sequence (Q9ULM3 201-332 limits assumed): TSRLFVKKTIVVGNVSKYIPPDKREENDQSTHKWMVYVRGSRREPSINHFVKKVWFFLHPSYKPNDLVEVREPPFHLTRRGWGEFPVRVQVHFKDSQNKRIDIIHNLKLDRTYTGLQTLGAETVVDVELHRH
The assay can be described thus: competitive photo-cross-linking assay. Format: binding. How it is done: The probes in the absence or presence of different concentrations of competitors were incubated with recombinant proteins (5 or 20 ng/µL) in binding buffer (50 mM HEPES, 150 mM NaCl, 2 mM MgCl2, 0.1% Tween-20, 20% glycerol, pH 7.5, with 50 ng/µL BSA) for 10 min at 4° C. Then, the samples were irradiated at 365 nm using UV lamp for 20 min in 96-well on ice.
To the prepared photo-cross-linking samples, we added 100 µM rhodamine-N3 for in-gel fluorescence (10 mM stock in DMSO), followed by 1 mM TCEP (freshly prepared 50 mM stock in H2O) and 100 µM TBTA (10 mM stock in DMSO); finally, the reactions were initiated by the addition of 1 mM CuSO4 (freshly prepared 50 mM stock in H2O). The reactions were incubated for 1 h at room temperature (22 to 25° C.) with regular vortexing. The reactions were quenched by adding 5 volumes of ice-cold acetone and placed at — 20° C. overnight to precipitate proteins.
Samples after protein precipitation were centrifuged at 13,000 × g for 5 min at 4° C. The supernatant was discarded, and the pellet was washed with ice-cooled acetone and air-dried for 10 min. The proteins were resuspended in 1 × LDS sample loading buffer (Invitrogen, Waltham, MA) with 50 mM DTT and heated at 95° C. for 8 min. Samples were then resolved by SDS-PAGE. […]
YEATS domain of YEATS2 is newly identified as histone benzoylation reader. […]

Non-standard residues stand in square brackets, D forms with d. Residues, ends and D or L forms follow the SMILES beside them. *: point of attachment. Benzofuran(2-CO) = O=C(c1cc2ccccc2o1)*; X1 = O=C(c1cc2ccc(Br)cc2o1)*; NMeA = CN[C@@H](C)C(=O)O; Ms = CS(=O)(=O)*

On to `C[C@H](NC(=O)[C@H](CO)NC(=O)[C@H](CCCCNC(=O)c1cc2ccccc2o1)NS(C)(=O)=O)C(=O)N1CCC[C@H]1C(N)=O` [MsKSAP] (Ms-K(Benzofuran(2-CO))SAP-NH2), for which, where the note is “Table 2”, the half-maximal inhibitory concentration (IC50) (commonly the concentration at which inhibition is half-maximal) was found to be 600 nM.
Regarding `C[C@@H](C(=O)N1CCC[C@H]1C(N)=O)N(C)C(=O)[C@H](CO)NC(=O)[C@H](CCCCNC(=O)c1cc2ccc(Br)cc2o1)NS(C)(=O)=O` [HC18] (Ms-K(X1)S[NMeA]P-NH2), the “inhibitory activity / potency against YEATS2 YEATS (in words)” value was “maintained the inhibitory activity”.
